Source: ChEMBL document CHEMBL6182831, “Thiazole-fused androstenone and ethisterone derivatives: potent β- and γ-actin cytoskeleton inhibitors to treat melanoma tumors” (RSC Med Chem, 2025)

Legend:
Format in all cases: functional
[1] = test system: LOX IMVI; experiment: Cytotoxicity against human LOX IMVI cells assessed as inhibition of cell growth incubated for 24 hrs by resazurin staining based analysis
[2] = test system: SK-MEL-28; experiment: Cytotoxicity against human SK-MEL-28 cells assessed as inhibition of cell growth incubated for 24 hrs by resazurin staining based analysis; settings: SK-MEL-28, 24 h
[3] = test system: SK-MEL-5; experiment: Cytotoxicity against human SK-MEL-5 cells assessed as inhibition of cell growth incubated for 24 hrs by resazurin staining based analysis; settings: SK-MEL-5, 24 h
[4] = test system: SK-MEL-25; experiment: Cytotoxicity against human SK-MEL-25 cells assessed as inhibition of cell growth incubated for 24 hrs by resazurin staining based analysis; settings: SK-MEL-25, 24 h
[5] = test system: B16-F10; experiment: Cytotoxicity against mouse B16-F10 cells assessed as inhibition of cell growth incubated for 24 hrs by resazurin staining based analysis; settings: B16-F10, 24 h

SMILES | IC50 [1] [µM] | IC50 [2] [µM] | IC50 [3] [µM] | IC50 [4] [µM] | IC50 [5] [µM]
C[C@]12CCc3nc(Nc4ccccn4)sc3C1=CC[C@@H]1[C@@H]2CC[C@]2(C)C(=O)CC[C@@H]12 | 2.3 | 8.9 | 7.1 | 11.8 | 5.9
C[C@]12CCc3nc(NCCc4ccccc4)sc3C1=CC[C@@H]1[C@@H]2CC[C@]2(C)C(=O)CC[C@@H]12 | 9 | 5.4 | 5.2 | > 20 | 6.1
C#C[C@]1(O)CC[C@H]2[C@@H]3CC=C4c5sc(Nc6cc(OC)ccc6OC)nc5CC[C@]4(C)[C@H]3CC[C@@]21C | 2.4 | 5 | 3.5 | 3.4 | 7.2
C#C[C@]1(O)CC[C@H]2[C@@H]3CC=C4c5sc(Nc6ncccn6)nc5CC[C@]4(C)[C@H]3CC[C@@]21C | 7.8 | 2.8 | 4.9 | 5.7 | 13.5
C[C@]12CCc3nc(Nc4cccc(F)c4)sc3C1=CC[C@@H]1[C@@H]2CC[C@]2(C)C(=O)CC[C@@H]12 | 1.6 | 4.5 | 6.7 | 4.2 | 2.7
C#C[C@]1(O)CC[C@H]2[C@@H]3CC=C4c5sc(Nc6ncccc6C)nc5CC[C@]4(C)[C@H]3CC[C@@]21C | 4.8 | 2.4 | 5.5 | > 20 | 2.9
C#C[C@]1(O)CC[C@H]2[C@@H]3CC=C4c5sc(-c6ccc(F)cc6)nc5CC[C@]4(C)[C@H]3CC[C@@]21C | 15.6 | > 20 | > 20 | > 20 | 13.9
